Source: ChEMBL document CHEMBL1201862, “PubChem BioAssay data set” (2004)
Calls of active or inactive are those of the source.

Legend:
[1] = target: T1, Aminopeptidase N (Plasmodium falciparum FcB1/Columbia, UniProt O96935); experiment: P. falciparum M1AAP inhibitors, biochemical, fluorogenic H-Leu-NHMec substrate, 1536-well (AID 1445); parameters: species or system Plasmodium falciparum 3D7, 3D7
T1 sequence (O96935 whole entry): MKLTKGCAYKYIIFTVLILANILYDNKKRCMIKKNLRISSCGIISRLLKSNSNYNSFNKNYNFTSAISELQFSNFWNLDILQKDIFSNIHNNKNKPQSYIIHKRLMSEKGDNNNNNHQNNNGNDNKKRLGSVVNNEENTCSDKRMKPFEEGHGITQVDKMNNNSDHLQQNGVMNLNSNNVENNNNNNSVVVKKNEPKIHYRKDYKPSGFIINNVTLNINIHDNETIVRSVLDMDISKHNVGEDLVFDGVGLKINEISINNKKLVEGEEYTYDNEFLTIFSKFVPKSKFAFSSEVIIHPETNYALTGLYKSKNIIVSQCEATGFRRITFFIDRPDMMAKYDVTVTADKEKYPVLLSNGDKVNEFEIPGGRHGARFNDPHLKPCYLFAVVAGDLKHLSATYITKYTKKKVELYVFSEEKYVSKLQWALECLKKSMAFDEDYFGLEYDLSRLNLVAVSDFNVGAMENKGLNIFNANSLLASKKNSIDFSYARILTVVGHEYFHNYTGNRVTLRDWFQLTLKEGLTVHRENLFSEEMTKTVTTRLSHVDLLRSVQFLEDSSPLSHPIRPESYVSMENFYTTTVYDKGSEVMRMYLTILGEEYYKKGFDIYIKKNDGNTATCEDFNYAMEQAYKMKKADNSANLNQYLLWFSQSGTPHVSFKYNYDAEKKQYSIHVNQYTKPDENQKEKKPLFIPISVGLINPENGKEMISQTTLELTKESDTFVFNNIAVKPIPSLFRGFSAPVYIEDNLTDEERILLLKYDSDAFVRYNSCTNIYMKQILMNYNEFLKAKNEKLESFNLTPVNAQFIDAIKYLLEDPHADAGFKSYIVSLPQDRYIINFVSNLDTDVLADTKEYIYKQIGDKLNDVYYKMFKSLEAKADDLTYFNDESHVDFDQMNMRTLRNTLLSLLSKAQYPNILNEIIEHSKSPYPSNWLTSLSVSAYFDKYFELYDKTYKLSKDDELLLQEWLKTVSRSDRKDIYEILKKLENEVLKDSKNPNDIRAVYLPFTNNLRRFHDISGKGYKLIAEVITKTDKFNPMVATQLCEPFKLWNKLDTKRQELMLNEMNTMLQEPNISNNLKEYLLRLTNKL

[2] = target: T2, Histone-lysine N-methyltransferase NSD2 (Homo sapiens, UniProt O96028); assay type: biochemical
T2 sequence (O96028 whole entry): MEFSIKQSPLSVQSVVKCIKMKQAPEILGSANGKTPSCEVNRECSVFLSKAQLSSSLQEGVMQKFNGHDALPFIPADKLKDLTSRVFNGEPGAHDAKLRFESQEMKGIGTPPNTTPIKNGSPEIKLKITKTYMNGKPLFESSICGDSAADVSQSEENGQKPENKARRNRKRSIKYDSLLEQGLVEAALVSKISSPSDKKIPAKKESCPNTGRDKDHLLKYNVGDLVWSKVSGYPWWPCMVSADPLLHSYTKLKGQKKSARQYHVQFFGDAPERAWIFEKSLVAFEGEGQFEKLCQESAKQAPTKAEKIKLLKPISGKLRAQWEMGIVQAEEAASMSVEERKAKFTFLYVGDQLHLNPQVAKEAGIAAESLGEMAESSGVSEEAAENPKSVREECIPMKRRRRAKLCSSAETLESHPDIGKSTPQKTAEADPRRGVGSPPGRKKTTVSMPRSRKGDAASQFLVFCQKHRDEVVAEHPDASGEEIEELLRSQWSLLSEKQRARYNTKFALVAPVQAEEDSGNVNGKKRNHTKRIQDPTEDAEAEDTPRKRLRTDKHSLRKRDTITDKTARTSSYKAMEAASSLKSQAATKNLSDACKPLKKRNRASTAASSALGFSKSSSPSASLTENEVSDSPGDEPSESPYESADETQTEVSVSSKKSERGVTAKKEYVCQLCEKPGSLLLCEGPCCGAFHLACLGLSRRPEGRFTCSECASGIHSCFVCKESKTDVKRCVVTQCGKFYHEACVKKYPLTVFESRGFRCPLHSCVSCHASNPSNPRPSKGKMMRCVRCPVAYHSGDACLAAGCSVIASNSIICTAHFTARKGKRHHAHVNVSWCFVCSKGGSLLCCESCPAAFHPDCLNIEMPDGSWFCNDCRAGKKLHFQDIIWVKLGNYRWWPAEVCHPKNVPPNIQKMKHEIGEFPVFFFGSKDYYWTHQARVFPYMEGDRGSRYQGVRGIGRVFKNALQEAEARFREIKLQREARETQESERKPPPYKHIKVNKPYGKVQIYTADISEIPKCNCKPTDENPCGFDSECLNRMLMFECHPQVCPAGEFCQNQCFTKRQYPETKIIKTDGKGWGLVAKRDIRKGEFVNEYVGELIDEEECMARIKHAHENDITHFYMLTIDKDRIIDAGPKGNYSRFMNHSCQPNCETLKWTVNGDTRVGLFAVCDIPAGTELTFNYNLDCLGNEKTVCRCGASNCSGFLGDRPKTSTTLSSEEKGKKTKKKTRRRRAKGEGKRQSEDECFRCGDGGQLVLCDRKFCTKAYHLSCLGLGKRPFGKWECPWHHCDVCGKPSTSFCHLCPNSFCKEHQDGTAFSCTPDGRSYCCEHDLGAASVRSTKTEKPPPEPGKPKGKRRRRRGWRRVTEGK

[3] = target: T3, Leucine aminopeptidase (Plasmodium falciparum 3D7, UniProt Q8IL11); experiment: P. falciparum M17LAP inhibitors, primary screen, biochemical, fluorogenic H-Leu-NHMec substrate, 1536-well (AID 1619); assay type: functional
T3 sequence (Q8IL11 whole entry): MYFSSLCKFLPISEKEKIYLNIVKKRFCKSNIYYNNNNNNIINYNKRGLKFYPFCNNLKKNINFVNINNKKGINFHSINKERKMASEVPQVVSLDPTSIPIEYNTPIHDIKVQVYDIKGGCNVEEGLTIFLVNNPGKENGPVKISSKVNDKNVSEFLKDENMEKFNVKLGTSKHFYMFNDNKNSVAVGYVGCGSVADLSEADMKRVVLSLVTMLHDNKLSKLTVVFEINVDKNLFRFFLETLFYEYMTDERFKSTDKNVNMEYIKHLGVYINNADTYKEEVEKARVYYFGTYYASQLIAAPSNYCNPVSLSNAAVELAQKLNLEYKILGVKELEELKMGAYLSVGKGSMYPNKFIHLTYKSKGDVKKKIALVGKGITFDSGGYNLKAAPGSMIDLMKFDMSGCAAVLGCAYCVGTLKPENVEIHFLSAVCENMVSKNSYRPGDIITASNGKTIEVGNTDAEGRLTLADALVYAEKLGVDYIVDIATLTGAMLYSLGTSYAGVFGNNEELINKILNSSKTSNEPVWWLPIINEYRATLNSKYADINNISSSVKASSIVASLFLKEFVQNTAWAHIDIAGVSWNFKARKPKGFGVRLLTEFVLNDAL

[4] = target: T4, Dual specificity protein phosphatase 6 (Rattus norvegicus, UniProt Q64346); experiment: MKP-3 phosphatase inhibitors, primary screen, biochemical, rat enzyme, in vitro (AID 425)
T4 sequence (Q64346 whole entry): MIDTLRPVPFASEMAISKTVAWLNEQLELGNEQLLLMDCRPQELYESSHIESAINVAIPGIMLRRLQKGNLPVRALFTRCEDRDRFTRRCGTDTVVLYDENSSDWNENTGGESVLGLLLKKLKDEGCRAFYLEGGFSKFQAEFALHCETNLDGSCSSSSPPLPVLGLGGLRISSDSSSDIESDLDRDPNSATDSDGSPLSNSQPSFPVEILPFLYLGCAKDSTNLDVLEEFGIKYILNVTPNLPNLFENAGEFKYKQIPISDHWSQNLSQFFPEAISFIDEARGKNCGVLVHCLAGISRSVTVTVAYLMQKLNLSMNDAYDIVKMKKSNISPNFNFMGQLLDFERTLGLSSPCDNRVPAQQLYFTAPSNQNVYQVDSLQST

[5] = target: Prothrombin (Homo sapiens, UniProt P00734); experiment: Thrombin 1536 HTS Dose Response Confirmation. [Related pubchem assays: 1046 (Thrombin 1536 HTS; hits were confirmed in this assay)]; assay type: functional
[6] = P. falciparum 3D7-ScDHODH growth inhibitors, dose response, SYBR Green, dry powder samples (AID 1159570); assay type: functional, cell-based;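 further: parasite growth measured after 72 hours of compound exposure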
[7] = target: Paired box protein Pax-8 (Homo sapiens, UniProt Q06710); experiment: inhibitors of PAX8-driven TPO luciferase reporter, dose response, RMG-I cells, cherry-pick (AID 687027); assay type: functional, cell-based;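 further: luciferase reporter driven by Pax8 target thyroperoxidase promoter measured by SteadyGlo luminescence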
[8] = P. falciparum Dd2 growth inhibitors, dose response, SYBR Green, cherry-picked samples (AID 1159567); assay type: functional, cell-based
[9] = P. falciparum ATP4 D1247Y mutant growth inhibitors, dose response, NITD609-resistant line, SYBR Green, dry powder (AID 1159571); assay type: functional, cell-based;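 further: parasites synchronized at ring stage by sorbitol before testing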
[10] = cytotoxicity in OVCAR8 ovarian cancer cells, dose response, PAX8 project, cell-based, plate reader, dry powder samples (AID 743197); assay type: functional; conditions: OVCAR-8
[11] = P. falciparum Dd2 growth inhibitors, dose response, SYBR Green, dry powder samples (AID 1159566); assay type: functional, cell-based;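 further: potency for growth inhibition with lower SYBR green DNA signal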
[12] = NIH:OVCAR-3 ovarian cancer cell cytotoxicity, dose response, PAX8 inhibitor project, plate reader, dry powder samples (AID 743044); assay type: functional, cell-based
[13] = target: T5, Coagulation factor XII (Homo sapiens, UniProt P00748); assay type: functional;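 further: activated factor XIIa alpha cleaving a fluorogenic AMC peptide substrate; inhibitor potency from loss of enzyme activity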
T5 sequence (P00748 whole entry): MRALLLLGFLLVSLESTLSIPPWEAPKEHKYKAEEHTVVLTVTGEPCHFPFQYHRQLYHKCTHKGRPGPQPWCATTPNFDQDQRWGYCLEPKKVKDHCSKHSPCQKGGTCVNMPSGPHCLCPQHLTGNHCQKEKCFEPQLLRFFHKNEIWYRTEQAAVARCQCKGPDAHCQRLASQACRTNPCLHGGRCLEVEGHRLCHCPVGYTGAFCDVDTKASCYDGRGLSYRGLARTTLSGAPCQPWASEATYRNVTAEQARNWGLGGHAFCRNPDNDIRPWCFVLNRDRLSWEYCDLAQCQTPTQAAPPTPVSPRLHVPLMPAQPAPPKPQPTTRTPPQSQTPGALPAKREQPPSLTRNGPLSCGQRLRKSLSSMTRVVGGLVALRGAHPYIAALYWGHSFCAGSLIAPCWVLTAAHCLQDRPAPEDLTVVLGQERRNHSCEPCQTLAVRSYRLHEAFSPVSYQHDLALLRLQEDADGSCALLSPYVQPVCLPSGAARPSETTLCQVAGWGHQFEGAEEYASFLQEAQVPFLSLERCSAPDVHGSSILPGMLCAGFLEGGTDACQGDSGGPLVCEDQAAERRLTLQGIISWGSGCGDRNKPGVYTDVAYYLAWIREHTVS

[14] = tested on: Streptococcus; experiment: Group A Streptococcus viability loss, dose response, counter-screen for streptokinase expression inhibitor project, luminescence, BacTiterGlo (AID 1915); assay type: functional, organism-based;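 further: potency for reduction of bacterial viability or growth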
[15] = tested on: Streptococcus sp. 'group A'; experiment: growth inhibition of control SK(-) GAS strain, dose response, counter-screen for streptokinase expression inhibitor project, luminescence, kanamycin, BacTiterGlo, confirmation (AID 1900); assay type: functional, organism-based
[16] = tested on: INS1; experiment: beta cell apoptosis inhibitors, cytokine rescue, dose response, luminescence, retest (AID 449756); assay type: functional, cell-based; conditions: Rattus norvegicus;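 further: cell death triggered by IL-1 beta plus TNF-alpha plus IFN-gamma mixture; protective hits raise ATP signal compared with cytokine alone wells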

Chain of Paired box protein Pax-8 (Q06710 whole entry): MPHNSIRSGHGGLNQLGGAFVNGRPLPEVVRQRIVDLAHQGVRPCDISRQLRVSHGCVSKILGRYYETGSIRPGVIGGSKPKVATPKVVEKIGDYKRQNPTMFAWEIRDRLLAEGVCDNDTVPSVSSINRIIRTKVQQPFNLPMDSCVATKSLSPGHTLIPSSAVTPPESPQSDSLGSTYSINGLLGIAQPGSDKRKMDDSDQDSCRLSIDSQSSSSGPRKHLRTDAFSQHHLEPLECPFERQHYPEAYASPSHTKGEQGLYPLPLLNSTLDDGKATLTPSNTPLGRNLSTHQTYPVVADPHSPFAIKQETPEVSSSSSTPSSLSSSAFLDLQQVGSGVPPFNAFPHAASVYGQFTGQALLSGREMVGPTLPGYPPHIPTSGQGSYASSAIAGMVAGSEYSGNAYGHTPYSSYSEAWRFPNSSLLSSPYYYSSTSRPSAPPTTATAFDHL

For Cc1ccc(C)c(N2C(=N)S/C(=C\c3ccc(-c4ccccc4C(=O)O)o3)C2=O)c1, the IC50 [1] was 10.4 µM (active), the AC50 [2] was 10.4 µM (active) and the IC50 [3] was 32.6 µM (active).

With COC(=O)c1ccccc1NC(=O)Nc1cc(C)cc(C)n1 the IC50 [4] was > 100 µM (not active).

For Cn1c(SCC(=O)NC2CCCC2)nnc1-c1ccc(S(=O)(=O)N2CCOCC2)cc1, the IC50 [5] was > 50 µM (not active).

For O=C(c1ccc(-c2ccccc2)cc1)N1CCN(Cc2ccccn2)CC1, the IC50 [4] was > 100 µM (not active).

In the case of N#Cc1sc2nc(-c3ccccc3)cc(C(F)(F)F)c2c1N, the IC50 [5] is reported as > 50 µM (not active).

For Cc1ccc(S(=O)(=O)N(C)C[C@H]2Oc3cc(C#Cc4ccncc4)ccc3S(=O)(=O)N([C@@H](C)CO)C[C@@H]2C)cc1, the AC50 [6] was 1.37 µM (active), the AC50 [7] was 2.52 µM (active) and the AC50 [8] was 1.68 µM (active). For the same compound, the AC50 [9] was 1.64 µM (active), the AC50 [10] was > 70 µM (inactive) and the AC50 [11] was 1.41 µM (active). For the same compound, the AC50 [12] was 49.1 µM (active).

With Cc1noc(C)c1S(=O)(=O)Nc1ccc2c(c1)C(=O)N([C@@H](C)CO)C[C@H](C)[C@@H](CN(C)C(=O)Nc1ccc(C(F)(F)F)cc1)OCCCC[C@H](C)O2 the AC50 [7] was 4.92 µM (active), the AC50 [10] was > 70 µM (inactive) and the AC50 [12] was 30.9 µM (active).

For O=C(N/N=C/c1ccc(OCc2cnc(Cl)s2)cc1)c1ccncc1, the IC50 [13] was > 50 µM (inactive) and the IC50 [5] was > 50 µM (not active).

With O=C(N/N=C/c1cccc(F)c1)c1c(O)nc2ccccc2c1O the EC50 [14] was 3.03 µM (active), the EC50 [15] was 2.87 µM (active) and the AC50 [16] was 3.63 µM (active). For the same compound, the IC50 [5] was > 50 µM (not active).

With COc1ccc(NC(=O)N2CCCCN3[C@@H](CO)[C@H](c4ccc(C#Cc5ccccn5)cc4)[C@@H]3C2)cc1 the AC50 [6] was 0.116 µM (active), the AC50 [8] was < 0.3 µM (active) and the AC50 [9] was 0.132 µM (active). For the same compound, the AC50 [11] was 0.155 µM (active).
